According to US5684034A, “1H-indole-3-acetamide sPLA2 inhibitors” (Eli Lilly and Company, priority 1995, dated 1997):
Values joined by “and” are separate entries in the source; they are usually repeats but may differ in a detail not shown here. Equal entries are not always repeated. Structures can show the parent of a compound that is named as a salt.

Each compound was assayed against T1, recombinant human secreted phospholipase A2 (Homo sapiens, UniProt P14555) (assay: Human secreted phospholipase A2 inhibition test (chromogenic assay, diheptanoyl thio-PC substrate)). Conditions: Inhibition of human secreted PLA2 IC50 ± mean deviation (3-5 tests), pH 7.5, 40° C., 30 minutes, 405 nm.
T1 sequence (P14555 21-144): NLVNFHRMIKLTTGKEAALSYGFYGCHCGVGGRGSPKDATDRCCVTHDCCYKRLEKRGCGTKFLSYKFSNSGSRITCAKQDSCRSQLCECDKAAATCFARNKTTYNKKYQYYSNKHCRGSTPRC
Assay type: biochemical
Protocol: The following chromogenic assay procedure was used to identify and evaluate inhibitors of recombinant human secreted phospholipase A2. The assay described herein has been adapted for high volume screening using 96 well microtiter plates.
A measured volume of racetic dipheptanoyl thio PC supplied in chloroform at a concentration of 100 mg/ml is taken to dryness and redissolved in 10 millimolar TRITON X-100™ nonionic detergent aqueous solution. Reaction Buffer is added to the solution, then DTNB to give the Reaction Mixture.
The reaction mixture thus obtained contains 1 mM diheptanoly thio-PC substrate, 0.29 mm Triton X-100™ detergent, and 0.12 mm DTMB in a buffered aqueous solution at pH 7.5.
1. Add 0.2 ml reaction mixture to all wells;
2. Add 10 ul test compound (or solvent blank) to appropriate wells, mix 20 seconds:
3. Add 50 nanograms of sPLA2 (10 microliters) to appropriate wells;
4. incubate plate at 40° C. for 30 minutes;
All compounds were tested in triplicate. […] Each sample was titrated in triplicate and result values were averaged for plotting and calculation of IC50 values. […] Each IC50 value was determined three times.

Structure (SMILES)	IC50
CCc1c(CC(N)=O)c2cc(OCCCP(=O)(OC)OC)ccc2n1Cc1ccccc1 [Example 61, [3-[[3-(2-Amino-2-oxoethyl)-2-ethyl-1-(phenylmethyl)-1H-indol-5-yl]oxy]propyl]phosphonic acid dimethyl ester]	270 nM
CCc1c(CC(N)=O)c2cc(OCCCP(=O)(O)OC)ccc2n1Cc1ccccc1 [Example 63, [3-[[3-(2-Amino-2-oxoethyl)-2-ethyl-1-(phenylmethyl)-1H-indol-5-yl]oxy]propyl]phosphonic acid monomethyl ester]	39 ± 5 nM
CCOP(=O)(COc1cccc2c1c(CC(N)=O)c(C)n2Cc1ccccc1)OCC [Example 67]	1680 nM
Cc1c(CC(N)=O)c2c(OCC(=O)O)cccc2n1Cc1cccc(Cl)c1 [Example 72, [[3-(2-Amino-2-oxoethyl)-1-[(3-chlorophenyl)methyl]-2-methyl-1H-indol-4-yl]oxy]methyl]acetic acid sodium salt]	50 ± 150 nM
NC(=O)Cc1c(C2CC2)n(Cc2ccccc2)c2ccc(OCCCP(=O)(O)O)cc12 [Example 79, [3-[[3-(2-Amino-2-oxoethyl)-2-cyclopropyl-1-(phenylmethyl)-1H-indol-5-yl]oxy]propyl]phosphonic acid]	46 ± 6 nM
NC(=O)Cc1cn(Cc2ccccc2)c2ccc(OCCCP(=O)(O)O)cc12 [Example 80, [3-[[3-(2-Amino-2-oxoethyl)-1-(phenylmethyl)-1H-indol-5-yl]oxy]propyl]phosphonic acid]	200 ± 90 nM
NC(=O)Cc1cn(Cc2ccccc2)c2ccc(OCP(=O)(O)O)cc12 [Example 81, [[3-(2-Amino-2-oxoethyl)-1-(phenylmethyl)-1H-indol-5-yl]oxy]methyl]phosphonic acid disodium salt]	3800 nM and 3600 nM
COP(=O)(CCCOc1ccc2c(c1)c(CC(N)=O)c(Br)n2Cc1ccccc1)OC [Example 86, [3-[[3-(2-Amino-2-oxoethyl)-2-bromo-1-(phenylmethyl)-1H-indol-5-yl]oxy]propane]phosphonic acid dimethyl ester]	420 ± 210 nM
COP(=O)(O)CCCOc1ccc2c(c1)c(CC(N)=O)c(Br)n2Cc1ccccc1 [Example 87]	72 ± 17 nM
NC(=O)Cc1c(Br)n(Cc2ccccc2)c2ccc(OCCCP(=O)(O)O)cc12 [Example 88]	30 ± 6 nM
C=CCc1c(O)ccc2c1c(CC(N)=O)c(CC)n2Cc1ccccc1 [Example 93, 4-Allyl-2-ethyl-5-hydroxy-1-(phenylmethyl)-1H-indole-acetamide]	140 ± 40 nM
Cc1c(CC(N)=O)c2cc(OCc3ccccc3C(=O)O)ccc2n1Cc1ccccc1 [Example 97, 2-[[[3-(2-Amino-2-oxoethyl)-2-methyl-1-(phenylmethyl)-1H-indol-5-yl]oxy]methyl]benzoic acid]	150 ± 10 nM

Same assay, conditions: pH 7.5, 40° C., 30 minutes, 405 nm; read-out: Inhibition of human secreted PLA2 IC50 ± mean deviation (3-5 tests)

Structure (SMILES)	IC50
CCOC(=O)CCCOc1ccc2c(c1)c(CC(N)=O)c(CC)n2Cc1ccccc1 [Example 57]	1270 nM
CCc1c(CC(N)=O)c2cc(OCCCC(=O)NN)ccc2n1Cc1ccccc1 [Example 59]	74 nM
CCc1c(CC(N)=O)c2cc(OCCCC(N)=O)ccc2n1Cc1ccccc1 [Example 60, 5-(4-Amino-4-oxobutoxy)-2-ethyl-1-(phenylmethyl)-1H-indole-3-acetamide]	104 ± 17 nM
CCc1c(CC(N)=O)c2cc(OCCCP(=O)(O)O)ccc2n1Cc1cccc(Cl)c1 [Example 64, [3-[[3-(2-Amino-2-oxoethyl)-1-[(3-chlorophenyl)methyl]-2-ethyl-1H-indol-5-yl]oxy]propyl]phosphonic acid]	16 ± 1 nM
Cc1c(CC(N)=O)c2c(OCC(=O)NN)cccc2n1Cc1ccccc1 [Example 65, 4-(2-Hydrazino-2-oxoethoxy)-2-methyl-1-(phenylmethyl)-1H-indole-3-acetamide]	360 ± 130 nM
Cc1c(CC(N)=O)c2c(OCC(N)=O)cccc2n1Cc1ccccc1 [Example 66, 4-(2-Amino-2-oxoethoxy)-2-methyl-1-(phenylmethyl)-1H-indole-3-acetamide]	360 ± 70 nM
COc1ccc2c(c1)c(CC(N)=O)c(C)n2Cc1cccc(Cl)c1 [Example 69, 1-[(3-Chlorophenyl)methyl]-5-methoxy-2-methyl-1H-indole-3-acetamide]	1380 ± 520 nM
Cc1c(CC(N)=O)c2cc(O)ccc2n1Cc1cccc(Cl)c1 [Example 70, 1-[(3-Chlorophenyl)methyl]-5-hydroxy-2-methyl-1H-indole-3-acetamide]	5880 ± 1170 nM
COC(=O)COc1cccc2c1c(CC(N)=O)c(C)n2Cc1cccc(Cl)c1 [Example 71]	2370 ± 790 nM
Cc1c(CC(N)=O)c2c(OCC(=O)O)cccc2n1Cc1ccccc1-c1ccccc1 [Example 73, [[3-(2-Amino-2-oxoethyl)-1-([1,1'-biphenyl]-2-ylmethyl)-2-methyl-1H-indol-4-yl]oxy]acetic acid sodium salt]	10 ± 1 nM
CCc1c(CC(N)=O)c2c(OCC(=O)O)cccc2n1Cc1cccc(Cl)c1 [Example 75, 2-[[3-(2-Amino-2-oxoethyl)-1-[(3-chlorophenyl)methyl]-2-ethyl-1H-indol-4-yl]oxy]acetic acid]	39 ± 4 nM
NC(=O)Cc1cn(Cc2ccccc2)c2cccc(OCC(=O)O)c12 [Example 76, 2-[[3-(2-Amino-2-oxoethyl)-1-(phenylmethyl)-1H-indol-4-yl]oxy]acetic acid]	337 nM and 305 nM
COc1ccc2c(c1)c(CC(N)=O)c(C1CC1)n2Cc1ccccc1 [Example 77, 2-Cyclopropyl-5-methoxy-1-(phenylmethyl)-1H-indole-3-acetamide]	336 ± 23 nM
NC(=O)Cc1c(C2CC2)n(Cc2ccccc2)c2ccc(O)cc12 [Example 78, 2-Cyclopropyl-5-hydroxy-1-(phenylmethyl)-1H-indole-3-acetamide]	118 ± 11 nM
NC(=O)Cc1cn(Cc2ccccc2)c2ccc(O)cc12 [Example 82, 5-Hydroxy-1-(phenylmethyl)-1H-indole-3-acetamide]	3680 ± 190 nM
NC(=O)Cc1cn(Cc2ccccc2)c2ccc(OCCCC(=O)O)cc12 [Example 83, 4-[[3-(2-Amino-2-oxoethyl)-1-(phenylmethyl)-1H-indol-5-yl]oxy]butanoic acid]	150 ± 40 nM
Cc1c(CC(N)=O)c2cc(OCCCS(=O)(=O)O)ccc2n1Cc1ccccc1 [Example 84, 3-[4-[[3-(2-Amino-2-oxoethyl)-2-methyl-1-(phenylmethyl)-1H-indol-5-yl]oxy]propane]sulfonic acid]	195 ± 65 nM
COc1cc2c(CC(N)=O)c(Br)n(Cc3ccccc3)c2cc1Cl [Example 89, 2-Bromo-6-chloro-5-methoxy-1-(phenylmethyl)-H-indole-3-acetamide]	120 ± 20 nM
NC(=O)Cc1c(Br)n(Cc2ccccc2)c2cc(Cl)c(O)cc12 [Example 90, 2-Bromo-6-chloro-5-hydroxy-1-(phenylmethyl)-H-indole-3-acetamide]	90 ± 10 nM
NC(=O)Cc1cn(Cc2ccccc2)c2cc(Cl)c(OCCCP(=O)(O)O)cc12 [Example 92, 3-[4-[[3-(2-Amino-2-oxoethyl)-6-chloro-1-(phenylmethyl)-1H-indol-5-yl]oxy]propyl]phosphonic acid]	14 ± 4 nM
C=CCc1c(OCCCP(=O)(O)O)ccc2c1c(CC(N)=O)c(CC)n2Cc1ccccc1 [Example 94, [3-[[4-Allyl-3-(2-amino-2-oxoethyl)-2-ethyl-1-(phenylmethyl)-1H-indol-5-yl]oxy]propyl]phosphonic acid disodium salt]	612 ± 65 nM
Cc1c(CC(N)=O)c2cc(Oc3ccccc3)ccc2n1Cc1ccccc1 [Example 95, 2-Methyl-5-phenoxy-1-(phenylmethyl)-1H-indole-3-acetamide]	1010 ± 320 nM
COC(=O)c1ccccc1COc1ccc2c(c1)c(CC(N)=O)c(C)n2Cc1ccccc1 [Example 96, 2-[[[3-(2-Amino-2-oxoethyl)-2-methyl-1-(phenylmethyl)-1H-indol-5-yl]oxy]methyl]benzoic acid methyl ester]	620 ± 180 nM
CCc1c(CC(N)=O)c2cc(OCc3ccccc3C(=O)OC)ccc2n1Cc1ccccc1 [Example 98, 2-[[[3-(2-Amino-2-oxoethyl)-2-ethyl-1-(phenylmethyl)-1H-indol-5-yl]oxy]methyl]benzoic acid methyl ester]	1150 ± 320 nM
CCc1c(CC(N)=O)c2cc(OCc3ccccc3C(=O)O)ccc2n1Cc1ccccc1 [Example 99, 2-[[[3-(2-Amino-2-oxoethyl)-2-ethyl-1-(phenylmethyl)-1H-indol-5-yl]oxy]methyl]benzoic acid]	540 ± 180 nM
COC(=O)c1cccc(COc2ccc3c(c2)c(CC(N)=O)c(C)n3Cc2ccccc2)c1 [Example 100, 3-[[[3-(2-Amino-2-oxoethyl)-2-methyl-1-(phenylmethyl)-1H-indol-5-yl]oxy]methyl]benzoic acid methyl ester]	3840 ± 1320 nM
Cc1c(CC(N)=O)c2cc(OCc3cccc(C(=O)O)c3)ccc2n1Cc1ccccc1 [Example 101, 3-[[[3-(2-Amino-2-oxoethyl)-2-methyl-1-(phenylmethyl)-1H-indol-5-yl]oxy]methyl]benzoic acid]	1890 ± 500 nM
